According to patent US20110201016A1, “METHOD FOR DETECTING MODULATOR FOR REGULATING ACTIVITY OF CELLULAR COMPONENT IN CELL” (MEDISCOV INC., priority 2010, published 2011):

Legend:
KIT = molecular target: T1, KIT (Homo sapiens, UniProt P10721); assay: Competition reaction with dasatinib-magnetic substance for EGFP-labelled kinase in cells; assay type: cell-based; details: KIT-EGFP in HeLa cells; 10 μM reactive competitor for 30 minutes to 2 hours
T1 construct: only the region of the amino acids 545 to 976 was amplified by PCR; expressed in transfected cells; host or cells: HeLa

MAPK14 [1] = molecular target: T2, MAPK14 (Homo sapiens, UniProt Q16539); assay: as above; details: MAPK14-EGFP in HeLa cells; 10 μM reactive competitor for 30 minutes to 2 hours
SNF1LK [2] = molecular target: T3, SNF1LK (Homo sapiens, UniProt P57059); assay: as above; assay type: cell-based; details: SNF1LK-EGFP in HeLa cells; 10 μM reactive competitor for 30 minutes to 2 hours
T3 construct: the ORF without the stop codon was amplified for each gene by PCR and then cloned into an expression vector; expressed in transfected cells; host or cells: HeLa

BLK [3] = molecular target: T4, BLK (Homo sapiens, UniProt P51451, G2A); assay: as above; assay type: cell-based; details: BLK-EGFP in HeLa cells; 10 μM reactive competitor for 30 minutes to 2 hours
T4 construct: the ORF without the stop codon was amplified for each gene by PCR; expressed in transfected cells; host or cells: HeLa

LYN [4] = molecular target: T5, LYN (Homo sapiens, UniProt P07948, G2A); assay: as above; assay type: cell-based; details: LYN-EGFP in HeLa cells; 10 μM reactive competitor for 30 minutes to 2 hours
T5 construct: the ORF without the stop codon was amplified for each gene by PCR; expressed in transfected cells; host or cells: HeLa

SNF1LK [5] = molecular target: T3, SNF1LK; assay: Binding of dasatinib-magnetic substance to EGFP-labelled kinase in cells (magnetic pattern co-localization); assay type: cell-based; details: SNF1LK-EGFP in HeLa cells; dasatinib on magnetic substance; no reactive competitor
Excerpt: (§1) Bioconjug. […] Adv. Mater. […] J. Am. Chem. Soc. 130, 16466].
(§2) J. Am. Chem. Soc. 130, 16466].
(§3) Nature 255: 706]. […] J. Am. Chem. Soc. 130, 16466].

CSK [6] = molecular target: T6, CSK (Homo sapiens, UniProt P41240); assay: as above; details: CSK-EGFP in HeLa cells; dasatinib-biotin coated on streptavidin magnetic substance; magnetic field
RIPK2 [7] = molecular target: T7, RIPK2 (Homo sapiens, UniProt O43353); assay: Competition reaction with dasatinib-magnetic substance for EGFP-labelled kinase in cells; assay type: cell-based; details: RIPK2-EGFP in HeLa cells; 10 μM reactive competitor for 30 minutes to 2 hours
T7 construct: the ORF without the stop codon was amplified for each gene by PCR; expressed in transfected cells; host or cells: HeLa

ABL2 [8] = assay: as above; details: EGFP-ABL2 in HeLa cells; 10 μM reactive competitor for 30 minutes to 2 hours
FGR [9] = molecular target: T8, FGR (Homo sapiens, UniProt P09769, G2A); assay: as above; details: FGR-EGFP in HeLa cells; 10 μM reactive competitor for 30 minutes to 2 hours
RIPK2 [10] = molecular target: T7, RIPK2; assay: Binding of dasatinib-magnetic substance to EGFP-labelled kinase in cells (magnetic pattern co-localization); assay type: cell-based; details: RIPK2-EGFP in HeLa cells; dasatinib-biotin coated on streptavidin magnetic substance; magnetic field
Excerpt: as §1, §2, §3
(§4) The result is illustrated in FIG. 2.

LYN [11] = molecular target: T5, LYN; assay: as above; assay type: cell-based; details: LYN-EGFP (G2A) in HeLa cells; dasatinib-biotin coated on streptavidin magnetic substance; magnetic field
Excerpt: as §1, §2, §3, §4

BLK [12] = molecular target: T4, BLK; assay: as above; assay type: cell-based; details: BLK-EGFP (G2A) in HeLa cells; dasatinib-biotin coated on streptavidin magnetic substance; magnetic field
Excerpt: as §1, §2, §3, §4

ABL2 [13] = assay: as above; details: EGFP-ABL2 in HeLa cells; dasatinib-biotin coated on streptavidin magnetic substance; magnetic field
MAPK14 [14] = molecular target: T2, MAPK14; assay: as above; details: MAPK14-EGFP in HeLa cells; dasatinib on magnetic substance; no reactive competitor
FGR [15] = molecular target: T8, FGR; assay: as above; details: FGR-EGFP (G2A) in HeLa cells; dasatinib-biotin coated on streptavidin magnetic substance; magnetic field
CSK [16] = molecular target: T6, CSK; assay: Competition reaction with dasatinib-magnetic substance for EGFP-labelled kinase in cells; details: CSK-EGFP in HeLa cells; 10 μM reactive competitor for 30 minutes to 2 hours

T1 sequence (P10721 545-976): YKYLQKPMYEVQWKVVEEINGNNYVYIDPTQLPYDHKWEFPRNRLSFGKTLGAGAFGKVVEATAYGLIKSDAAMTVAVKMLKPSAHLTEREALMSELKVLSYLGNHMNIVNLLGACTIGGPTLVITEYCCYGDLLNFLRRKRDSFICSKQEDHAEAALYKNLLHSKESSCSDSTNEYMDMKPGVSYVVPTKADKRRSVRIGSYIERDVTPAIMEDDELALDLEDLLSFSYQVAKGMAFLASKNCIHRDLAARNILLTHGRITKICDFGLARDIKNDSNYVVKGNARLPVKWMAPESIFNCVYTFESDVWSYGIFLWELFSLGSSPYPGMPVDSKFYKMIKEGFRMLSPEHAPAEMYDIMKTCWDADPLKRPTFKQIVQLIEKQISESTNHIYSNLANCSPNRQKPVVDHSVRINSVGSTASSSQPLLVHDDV
T4 sequence (P51451 whole entry G2A): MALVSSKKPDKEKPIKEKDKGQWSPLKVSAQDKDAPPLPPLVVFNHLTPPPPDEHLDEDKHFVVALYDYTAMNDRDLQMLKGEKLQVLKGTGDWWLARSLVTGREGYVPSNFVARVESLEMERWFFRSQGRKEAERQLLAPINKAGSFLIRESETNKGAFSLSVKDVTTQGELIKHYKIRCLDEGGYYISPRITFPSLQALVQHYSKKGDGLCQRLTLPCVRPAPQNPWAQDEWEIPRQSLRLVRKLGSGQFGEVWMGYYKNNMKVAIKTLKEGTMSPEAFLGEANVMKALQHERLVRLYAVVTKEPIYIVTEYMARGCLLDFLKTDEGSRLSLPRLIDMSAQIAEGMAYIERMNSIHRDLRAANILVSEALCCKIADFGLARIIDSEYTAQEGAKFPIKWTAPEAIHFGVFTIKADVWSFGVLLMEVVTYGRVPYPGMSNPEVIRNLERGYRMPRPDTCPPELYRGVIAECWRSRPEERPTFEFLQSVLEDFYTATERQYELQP
T7 sequence (O43353 whole entry): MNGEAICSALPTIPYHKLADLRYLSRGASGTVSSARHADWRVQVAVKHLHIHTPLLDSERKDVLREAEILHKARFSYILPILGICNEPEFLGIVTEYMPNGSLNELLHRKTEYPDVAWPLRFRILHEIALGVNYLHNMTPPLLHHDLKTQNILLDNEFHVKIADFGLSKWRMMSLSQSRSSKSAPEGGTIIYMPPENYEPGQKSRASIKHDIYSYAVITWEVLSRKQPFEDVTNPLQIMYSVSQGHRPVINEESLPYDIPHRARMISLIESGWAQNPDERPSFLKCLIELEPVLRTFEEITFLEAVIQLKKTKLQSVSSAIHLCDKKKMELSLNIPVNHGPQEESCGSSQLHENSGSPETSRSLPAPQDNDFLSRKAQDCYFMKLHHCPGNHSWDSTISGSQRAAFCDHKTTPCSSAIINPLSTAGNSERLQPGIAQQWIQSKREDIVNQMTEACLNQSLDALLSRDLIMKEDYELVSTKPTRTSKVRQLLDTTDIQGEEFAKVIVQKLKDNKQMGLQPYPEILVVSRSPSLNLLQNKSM
T5 sequence (P07948 1-491 isoform P07948-2 G2A): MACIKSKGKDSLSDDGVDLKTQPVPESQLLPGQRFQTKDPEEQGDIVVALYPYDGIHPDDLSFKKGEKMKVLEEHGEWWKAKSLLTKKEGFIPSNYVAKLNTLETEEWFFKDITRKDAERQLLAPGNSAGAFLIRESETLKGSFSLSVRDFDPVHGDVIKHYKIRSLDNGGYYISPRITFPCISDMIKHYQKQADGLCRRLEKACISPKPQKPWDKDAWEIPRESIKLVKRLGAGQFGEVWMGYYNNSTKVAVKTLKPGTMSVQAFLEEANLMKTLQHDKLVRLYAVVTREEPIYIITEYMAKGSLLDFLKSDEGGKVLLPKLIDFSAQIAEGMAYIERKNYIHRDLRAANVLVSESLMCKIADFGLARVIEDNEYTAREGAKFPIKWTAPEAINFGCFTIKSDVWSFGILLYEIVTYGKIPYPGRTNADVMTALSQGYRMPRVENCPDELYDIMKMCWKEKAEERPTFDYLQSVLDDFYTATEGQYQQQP
T6 sequence (P41240 whole entry): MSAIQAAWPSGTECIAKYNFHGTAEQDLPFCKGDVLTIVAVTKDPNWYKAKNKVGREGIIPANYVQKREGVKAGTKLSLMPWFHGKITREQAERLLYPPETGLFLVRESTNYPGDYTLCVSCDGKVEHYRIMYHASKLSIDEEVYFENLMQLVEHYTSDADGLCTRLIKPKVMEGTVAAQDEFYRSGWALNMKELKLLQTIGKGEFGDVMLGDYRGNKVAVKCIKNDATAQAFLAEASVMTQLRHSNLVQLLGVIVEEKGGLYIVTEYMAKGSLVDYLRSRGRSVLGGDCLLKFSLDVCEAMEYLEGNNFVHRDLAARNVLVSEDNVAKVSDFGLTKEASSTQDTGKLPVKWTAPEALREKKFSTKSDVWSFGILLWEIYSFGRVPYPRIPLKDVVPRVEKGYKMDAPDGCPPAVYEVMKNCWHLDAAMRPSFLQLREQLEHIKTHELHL
T3 sequence (P57059 whole entry): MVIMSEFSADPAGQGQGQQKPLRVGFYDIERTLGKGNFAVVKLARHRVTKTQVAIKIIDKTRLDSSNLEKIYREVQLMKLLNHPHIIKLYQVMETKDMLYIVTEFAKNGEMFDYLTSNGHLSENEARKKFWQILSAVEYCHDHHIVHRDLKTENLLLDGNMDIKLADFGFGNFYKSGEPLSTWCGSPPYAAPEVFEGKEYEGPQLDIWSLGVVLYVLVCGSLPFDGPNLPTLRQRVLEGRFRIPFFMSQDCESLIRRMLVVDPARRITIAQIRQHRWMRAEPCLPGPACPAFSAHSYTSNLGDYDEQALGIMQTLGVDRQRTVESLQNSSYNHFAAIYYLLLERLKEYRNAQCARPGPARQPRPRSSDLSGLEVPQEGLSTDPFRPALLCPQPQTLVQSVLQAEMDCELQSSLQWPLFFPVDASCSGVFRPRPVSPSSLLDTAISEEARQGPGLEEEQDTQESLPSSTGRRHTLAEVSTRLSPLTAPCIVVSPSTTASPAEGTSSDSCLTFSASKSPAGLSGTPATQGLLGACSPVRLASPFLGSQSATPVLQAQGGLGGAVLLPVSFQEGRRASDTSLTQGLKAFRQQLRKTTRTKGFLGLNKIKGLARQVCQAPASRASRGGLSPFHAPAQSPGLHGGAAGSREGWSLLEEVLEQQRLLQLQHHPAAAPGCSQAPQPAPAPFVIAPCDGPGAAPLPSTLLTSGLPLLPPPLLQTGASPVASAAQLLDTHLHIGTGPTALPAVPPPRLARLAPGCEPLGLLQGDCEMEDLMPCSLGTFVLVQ
T2 sequence (Q16539 1-360 isoform Q16539-2): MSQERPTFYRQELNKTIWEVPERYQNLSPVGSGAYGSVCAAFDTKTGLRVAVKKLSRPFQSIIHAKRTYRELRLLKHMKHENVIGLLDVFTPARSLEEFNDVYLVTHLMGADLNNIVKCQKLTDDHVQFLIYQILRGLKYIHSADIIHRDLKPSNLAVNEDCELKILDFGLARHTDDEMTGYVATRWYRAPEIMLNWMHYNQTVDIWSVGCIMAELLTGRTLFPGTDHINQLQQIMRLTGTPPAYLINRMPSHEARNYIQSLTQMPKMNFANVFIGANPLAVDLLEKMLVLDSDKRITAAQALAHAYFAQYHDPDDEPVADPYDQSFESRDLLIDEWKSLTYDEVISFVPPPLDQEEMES

SMILES	competition with dasatinib-magnetic substance: fluorescent pattern overlapped with magnetization pattern (KIT)	competition with dasatinib-magnetic substance: fluorescent pattern overlapped with magnetization pattern (MAPK14 [1])	competition with dasatinib-magnetic substance: fluorescent pattern overlapped with magnetization pattern (SNF1LK [2])	competition with dasatinib-magnetic substance: fluorescent pattern overlapped with magnetization pattern (BLK [3])	competition with dasatinib-magnetic substance: fluorescent pattern overlapped with magnetization pattern (LYN [4])	fluorescent pattern of kinase-EGFP overlapped with magnetization pattern (binding) (SNF1LK [5])	fluorescent pattern of kinase-EGFP overlapped with magnetization pattern (binding) (CSK [6])	competition with dasatinib-magnetic substance: fluorescent pattern overlapped with magnetization pattern (RIPK2 [7])	competition with dasatinib-magnetic substance: fluorescent pattern overlapped with magnetization pattern (ABL2 [8])	competition with dasatinib-magnetic substance: fluorescent pattern overlapped with magnetization pattern (FGR [9])	fluorescent pattern of kinase-EGFP overlapped with magnetization pattern (binding) (RIPK2 [10])	fluorescent pattern of kinase-EGFP overlapped with magnetization pattern (binding) (LYN [11])	fluorescent pattern of kinase-EGFP overlapped with magnetization pattern (binding) (BLK [12])	fluorescent pattern of kinase-EGFP overlapped with magnetization pattern (binding) (ABL2 [13])	fluorescent pattern of kinase-EGFP overlapped with magnetization pattern (binding) (MAPK14 [14])	fluorescent pattern of kinase-EGFP overlapped with magnetization pattern (binding) (FGR [15])	competition with dasatinib-magnetic substance: fluorescent pattern overlapped with magnetization pattern (CSK [16])
Cc1ccc(NC(=O)c2ccc(CN3CCN(C)CC3)cc2)cc1Nc1nccc(-c2cccnc2)n1 [imatinib]	interacts																
Cc1nc(Nc2ncc(C(=O)Nc3c(C)cccc3Cl)s2)cc(N2CCN(CCO)CC2)n1 [dasatinib, N-(2-chloro-6-methyl-phenyl)-2-(6-(4-(2-hydroxyethyl)-piperazin-1-yl)-2-methylpyrimidin-4-ylamino)thiazole-5-carboxamide]	fluorescent pattern overlapped with an induced magnetization pattern of the magnetic substances was not observed	fluorescent pattern overlapped with an induced magnetization pattern of the magnetic substances was not observed	fluorescent pattern overlapped with an induced magnetization pattern of the magnetic substances was not observed	fluorescent pattern overlapped with an induced magnetization pattern of the magnetic substances was not observed	fluorescent pattern overlapped with an induced magnetization pattern of the magnetic substances was not observed	interacted	showed the fluorescent patterns aligned in a magnetized direction	fluorescent pattern overlapped with an induced magnetization pattern of the magnetic substances was not observed	fluorescent pattern overlapped with an induced magnetization pattern of the magnetic substances was not observed	fluorescent pattern overlapped with an induced magnetization pattern of the magnetic substances was not observed	showed the fluorescent patterns aligned in a magnetized direction	showed the fluorescent patterns aligned in a magnetized direction	showed the fluorescent patterns aligned in a magnetized direction	showed the fluorescent patterns aligned in a magnetized direction	interacted	showed the fluorescent patterns aligned in a magnetized direction	fluorescent pattern overlapped with an induced magnetization pattern of the magnetic substances was not observed
